# Experimental data taken from US7981448B2, “Methods of treating necrotizing enterocolitis” (University of Pittsburgh, priority 2002, dated 2011).
# Legend:
# IEC-6 cells [1] = test: TNF-α/Actinomycin D-induced IEC-6 cell death, viability by cellular ATP content; format: cell-based, rat; settings: for TNF-α/ActD-induced IEC-6 cell death (in words): CoPP 16 hours before
# Method: FIG. 7 is a bar graph illustrating that CO exposure and induction of HO-1 decreases TNF-α/Actinomycin D (TNF/ActD)-induced IEC-6 cell death. Viability of TNF-α (TNF; 10 ng/ml)/Actinomycin D (ActD; 200 ng/ml)-treated IEC-6 cells was assayed after 18 hours by measuring cellular ATP content. CO treatment (CO; gray bars; 250 ppm) was initiated 1 hour prior to administration of TNF-α/ActD and maintained throughout the duration of the experiment. Cross-hatched bars=cells exposed to cobalt protoporphyrin (CoPP) 16 hours prior to exposure to TNF-α/ActD. Black bars=air exposed cells. […] Results are mean±standard error of 3 independent studies performed in triplicate.
# (§1) The rat small-intestinal epithelial cell line IEC-6 was obtained from the American Type Culture Collection (Manassas, Va.). Cells were grown in Dulbecco's modified Eagle's medium with 4.5 g/L glucose (Bio-Whittaker, Walkersville, Md.) supplemented with 5% fetal bovine serum, […] (Gibco, Grand Island, N.Y.), 0.1 U/mL insulin, and 100 U/mL penicillin/100 μg/mL streptomycin at 37° C. and 10% CO2. Cells from passages 3 through 20 were used for experiments.
# Cell viability was determined by measuring ATP levels (CellTiter-Glo™; Promega) as per the manufacturer's protocol.
# To determine whether HO-1 or CO inhibits cell death in vitro, the rat intestinal epithelial cell line IEC-6 was utilized. Cell death was induced by treating these cells with TNF-α (10 ng/ml) plus actinomycin D (ActD; 200 ng/ml). Cell viability was analyzed by crystal violet staining of adherent cells and assessment of cellular ATP content. TNF-α/ActD decreased IEC-6 cell viability to 24±2.1% that of untreated controls (FIG. 7; P<0.05).
# iNOS [2] = test: iNOS protein expression in IEC-6 cells by Western blot; format: cell-based, rat; settings: 24 hours, CO 250 ppm from 1 hour before; for Cytokine-induced increase in iNOS protein in IEC-6 cells: CM: TNF-α 10 ng/ml, IL-1β 500 U/ml, IFN-γ 1000 U/ml, CoPP 16 hours before
# Method: FIG. 8A is a picture of a Western blot illustrating (at 24 hours) that iNOS protein expression is inhibited in lipopolysaccharide (LPS) and/or hypoxia (1% oxygen) treated IEC-6 cells. CO treatment (250 ppm) was initiated 1 hour before the addition of LPS/hypoxia and maintained throughout the experiment. The combination of LPS (10 or 100 ng/ml) plus hypoxia increased iNOS protein expression, an effect that was inhibited by CO. The presence (+) or absence (−) of each treatment (lipopolysaccharide (lps), hypoxia exposure (hypoxia) and CO exposure (CO)) is indicated beneath each lane of the Western blot.
# (§2) FIG. 8C is a picture of a Western blot illustrating that cytokine-induced iNOS protein expression is inhibited in IEC-6 cells by induction of HO-1 or treatment with CO. IEC-6 cells were treated with a cytokine mixture (CM) containing TNF-α (10 ng/ml), IL-1β (500 U/ml), and IFN-γ (1000 U/ml) for 24 hours. CO treatment (250 ppm) was initiated 1 hour prior to administration of CM and maintained throughout the duration of the experiment. Cobalt protoporphyrin (CoPP) was administered 16 hours prior to CM treatment. CM increased IEC-6 cell iNOS protein. Both CO and CoPP inhibited cytokine-induced increase in iNOS protein. The presence (+) or absence (−) of each treatment (cytokine mixture (CM), CO exposure (CO), and cobalt protoporphyrin exposure (CoPP)) is indicated beneath each lane of the Western blot.
# The rat small-intestinal epithelial cell line IEC-6 was obtained from the American Type Culture Collection (Manassas, Va.). […]
# (§3) IEC-6 cells or ileal mucosal scrapings were collected in lysis buffer containing 20 mmol/L Tris with 100 μmol/L phenylmethylsulfonylfluoride (Sigma), 1 μmol/L leupeptin (Sigma), and 1 μmol/L sodium orthovanadate (Sigma). Protein was quantified by bicinchoninic acid (BCA) protein assay (Pierce, Rockford, Ill.). […]
# IEC-6 cells [3] = test: Nitrite determination (Griess) in IEC-6 culture medium; format: cell-based, rat; settings: CM stimulation; 17.2±0.9 μM with CM alone, 1.4±0.3 μM unstimulated
# Method: as §2
# FIG. 8D is a bar graph illustrating that the nitrite levels in supernatantants of IEC-6 cells that are exposed to CM and either CO or CoPP are lower than those of IEC-6 cells exposed to CM and air (as determined by Griess assay). Cytokine stimulation increased nitrite to 17.2±0.9 μM compared to 1.4±0.3 μM in unstimulated controls (P<0.01). […] Black bars=air exposed cells; gray bars=CO exposed cells; and cross-hatched bars=CoPP exposed cells. […]
# Nitrite (NO2^−) was measured in the culture medium using the Griess method.
# neonatal rat ileum [4] = test: Animal model of necrotizing enterocolitis: gross and microscopic pathology of ileum; format: in vivo; settings: for Gross Changes (n): Bowel wall necrosis / Gross Changes (n): Pneumatosis intestinalis / Microscopic Changes (n): Stromal neutrophils / Microscopic Changes (n): Vacuolization / Microscopic Changes (n): Villous atrophy: day 4 of life
# Method: (§4) Pregnant time-dated Sprague-Dawley rats were induced at term using subcutaneous injection of Pitocin (1 U). Immediately after birth (day zero), the neonates were weighed and randomized into two main groups. Animals were either left with their mothers and thus breast-fed, or separated from their mothers, housed in an incubator (Ohio Medical Products, Madison, Wis.), gavage fed with a special rodent formula two times daily, and subjected to 10 minutes of hypoxia (5% O2, 95% N2; PraxAir, Pittsburgh, Pa.) prior to each feeding. The formula consisted of 15 g Similac® 60/40 (Ross Pediatrics, Colombus, Ohio) in 75 mL of Esbilac® canine milk replacement (Pet-Ag Inc., Hampshire, Ill.). Rats from each group were further randomized to receive no additional treatment or one-hour per day CO treatment (250 parts per million; ppm, days 1-3). CO was delivered as described below. The neonatal rats were sacrificed on day four. The intestines were inspected for gross necrotic changes and pneumatosis intestinalis. The last 2 cm of terminal ileum was harvested for morphological studies, and mucosal scrapings were collected for detection of protein.
# Animals were exposed to CO at a concentration of 250 ppm. Briefly, 1% CO in air was mixed with air (21% oxygen) in a stainless steel mixing cylinder and then directed into a 3.70 ft^3 glass exposure chamber at a flow rate of 12 L/min. A CO analyzer (Interscan, Chatsworth, Calif.) was used to measure CO levels continuously in the chamber. CO concentrations were maintained at 250 ppm at all times. Rats were placed in the exposure chamber as required.
# Intestinal specimens were harvested as described above. Hematoxylin and eosin (H&E) slides were prepared as per standard protocol and examined by light microscopy. The presence of morphological changes in the intestinal epithelium, including separation of the villous core, submucosal edema, and epithelial sloughing, were determined by a pathologist in a blinded fashion.
# neonatal rat ileum [5] = test: TUNEL staining of ileal whole mounts in the NEC model; format: in vivo; settings: H/F neonatal rats, CO 250 ppm 1 h/day days 1-3, ileum day 4
# Method: as §4
# (§5) Animals were exposed to CO at a concentration of 250 ppm. Briefly, 1% CO in air was mixed with air (21% oxygen) in a stainless steel mixing cylinder and then directed into a 3.70 ft^3 glass exposure chamber at a flow rate of 12 L/min. […]
# TNF-α = test: Serum cytokine determination by ELISA (TNF-α); format: in vivo, rat; settings: H/F neonatal rats + CO 250 ppm; 33.2 fold in H/F without CO
# Method: as §4, §5
# IL-1β [6] = test: Serum cytokine determination by ELISA (IL-1β); format: in vivo, rat; settings: H/F neonatal rats + CO 250 ppm; 18.5 fold in H/F without CO
# Method: as §4, §5
# COX-2 = test: Western blot of ileal mucosal lysates (COX-2); format: in vivo, rat; settings: H/F neonatal rats + CO, ileal mucosa
# Method: as §4, with “The last 2 cm of terminal ileum was harvested for morphological studies, and mucosal scrapings were collected for detection of protein.” left out
# as §3
# IL-1β [7] = test: Western blot of ileal mucosal lysates (IL-1β); format: in vivo, rat; settings: H/F neonatal rats + CO, ileal mucosa
# Method: as §4, with “The last 2 cm of terminal ileum was harvested for morphological studies, and mucosal scrapings were collected for detection of protein.” left out
# as §3
# HO-1 = test: Western blot of ileal mucosal lysates (HO-1); format: in vivo, rat; settings: H/F neonatal rats + CO (data not shown)
# Method: as §4, with “The last 2 cm of terminal ileum was harvested for morphological studies, and mucosal scrapings were collected for detection of protein.” left out
# as §3
# iNOS [8] = test: Western blot of ileal mucosal lysates (iNOS); format: in vivo, rat; settings: H/F neonatal rats + CO, ileal mucosa
# Method: as §4, with “The last 2 cm of terminal ileum was harvested for morphological studies, and mucosal scrapings were collected for detection of protein.” left out
# as §3
# nitrosotyrosines = test: Western blot of ileal mucosal lysates (protein nitration); format: in vivo, rat; settings: H/F neonatal rats + CO, ileal mucosa
# Method: as §4, with “The last 2 cm of terminal ileum was harvested for morphological studies, and mucosal scrapings were collected for detection of protein.” left out
# as §3
# rat iNOS promoter = test: Rat iNOS promoter-luciferase reporter assay in IEC-6 cells; format: cell-based; settings: IEC-6, LPS 100 ng/ml + 1% oxygen + CO; 4.9±0.3 fold without CO
# Method: FIG. 8B is a bar graph illustrating that rat iNOS promoter activity in LPS (100 ng/ml)/hypoxia (1% oxygen; lps/hypoxia)-treated IEC-6 cells is limited by exposure to CO. Cells were assayed for luciferase activity. […] CO limited this transcriptional activation to a 1.7±0.2 fold increase (P<0.05). Results are mean±standard error of 3 independent studies performed in triplicate.
# as §1
# pGL3/2 rat iNOS promoter-luciferase reporter was constructed as described in Beck et al., FEBS Lett 435:35-38 (1998). IEC-6 cells grown in 35 mm wells were transfected with 4 μL Lipofectamine2000® (Invitrogen), 0.15 μg pGL3/2 DNA and 0.5 μg pIEP-LacZ DNA, which was used as a control for transfection efficiency. Twenty-four hours following transfection, cells were treated for 6 hours, then lysates were collected and a luciferase assay (Promega) was performed with a luminometer (Berthold, Germany).
# [9] = TNF-α 10 ng/ml + ActD 200 ng/ml, 18 hours, CO 250 ppm from 1 hour before
# [10] = Breast-fed + CO (250 ppm, 1 h/day, days 1-3), total n=7
# [11] = Formula-Fed/Hypoxia + CO (250 ppm, 1 h/day, days 1-3), total n=8
compound,measurement,setting,value
"C=CC1=C(C)c2cc3[n-]c(cc4nc(cc5[n-]c(cc1n2)c(C)c5CCC(=O)[O-])C(CCC(=O)[O-])=C4C)c(C)c3C=C.[Co+2].[H+].[H+] [CoPP, cobalt protoporphyrin, reference compound]",TNF-α/ActD-induced IEC-6 cell death (in words),IEC-6 cells [1]; [9],significantly decreased
same,Cytokine-induced increase in iNOS protein in IEC-6 cells,iNOS [2],inhibited
same,Nitrite levels in supernatants of cytokine-stimulated IEC-6 cells,IEC-6 cells [3],10.4 ± 1.0 µM
"[C-]#[O+] [CO, carbon monoxide]",Gross Changes (n): Bowel wall necrosis,neonatal rat ileum [4]; [10],0 n
same,Gross Changes (n): Pneumatosis intestinalis,neonatal rat ileum [4]; [10],0 n
same,Microscopic Changes (n): Stromal neutrophils,neonatal rat ileum [4]; [10],0 n
same,Microscopic Changes (n): Vacuolization,neonatal rat ileum [4]; [10],1 n
same,Microscopic Changes (n): Villous atrophy,neonatal rat ileum [4]; [10],0 n
same,Gross Changes (n): Bowel wall necrosis,neonatal rat ileum [4]; [11],2 n
same,Gross Changes (n): Pneumatosis intestinalis,neonatal rat ileum [4]; [11],1 n
same,Microscopic Changes (n): Stromal neutrophils,neonatal rat ileum [4]; [11],1 n
same,Microscopic Changes (n): Vacuolization,neonatal rat ileum [4]; [11],3 n
same,Microscopic Changes (n): Villous atrophy,neonatal rat ileum [4]; [11],2 n
same,Development of experimental NEC,"neonatal rat ileum [4]; H/F (hypoxia/formula fed) neonatal rats, CO 250 ppm 1 h/day days 1-3, day 4",significantly protected
same,Effect on gross or microscopic evaluation,"neonatal rat ileum [4]; breast fed neonatal rats, CO 250 ppm 1 h/day days 1-3, day 4",no effect
same,TUNEL staining for cell death,neonatal rat ileum [5],diminished
same,Serum TNF-α increase compared to breast fed controls,TNF-α,3 fold
same,Serum IL-1β increase compared to breast fed controls,IL-1β [6],2.5 fold
same,Ileal COX-2 protein expression,COX-2,decreased expression
same,Ileal IL-1β protein expression,IL-1β [7],decreased expression
same,Ileal HO-1 expression,HO-1,decreased expression
same,Ileal iNOS protein,iNOS [8],markedly decreased
same,Ileal nitrosotyrosines (protein nitration),nitrosotyrosines,markedly decreased
same,"Effect on viability of IEC-6 cells, agent alone","IEC-6 cells [1]; CO alone, in vitro",no measurable effect
same,TNF-α/ActD-induced IEC-6 cell death (in words),IEC-6 cells [1]; [9],significantly decreased
same,IEC-6 cell viability compared to untreated controls,"IEC-6 cells [1]; TNF-α 10 ng/ml + ActD 200 ng/ml, 18 hours, CO 250 ppm from 1 hour before, 24±2.1% without CO",54±5.6%
same,Cytokine-induced increase in iNOS protein in IEC-6 cells,iNOS [2],inhibited
same,LPS/hypoxia-induced iNOS protein in IEC-6 cells,iNOS [2]; LPS 10 or 100 ng/ml + 1% oxygen,inhibited
same,"Transcriptional activation of the iNOS promoter, fold increase",rat iNOS promoter,1.7±0.2 fold
same,Nitrite levels in supernatants of cytokine-stimulated IEC-6 cells,IEC-6 cells [3],9.8 ± 0.7 µM
